# Test results published in paper PMC8954747 (Viruses, 2022).
# Ends that are not written are not given here.
# Target: SCRIB PDZ2 H928A (Homo sapiens, UniProt Q14160, H928A)
# Assay: biochemical
# Assay type: binding
# Chain of SCRIB PDZ2 H928A (Q14160 860-950 H928A limits assumed): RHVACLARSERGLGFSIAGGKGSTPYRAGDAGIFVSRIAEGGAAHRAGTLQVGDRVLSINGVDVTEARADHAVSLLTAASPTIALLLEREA
sequence,measurement,value
KMARTIESEV [Vietnam (ESEV)],Kd,3.6 ± 0.7 µM
